Measurements taken from ChEMBL document CHEMBL1136863, “Identification and SAR of squarate inhibitors of mitogen activated protein kinase-activated protein kinase 2 (MK-2)” (Bioorg Med Chem, 2009).
pIC50: −log10 of the molar value.

Assays:
[1] = target: T1, Inhibitor of nuclear factor kappa-B kinase subunit alpha (Homo sapiens, UniProt O15111); experiment: Inhibition of IKKalpha
T1 sequence (O15111 whole entry): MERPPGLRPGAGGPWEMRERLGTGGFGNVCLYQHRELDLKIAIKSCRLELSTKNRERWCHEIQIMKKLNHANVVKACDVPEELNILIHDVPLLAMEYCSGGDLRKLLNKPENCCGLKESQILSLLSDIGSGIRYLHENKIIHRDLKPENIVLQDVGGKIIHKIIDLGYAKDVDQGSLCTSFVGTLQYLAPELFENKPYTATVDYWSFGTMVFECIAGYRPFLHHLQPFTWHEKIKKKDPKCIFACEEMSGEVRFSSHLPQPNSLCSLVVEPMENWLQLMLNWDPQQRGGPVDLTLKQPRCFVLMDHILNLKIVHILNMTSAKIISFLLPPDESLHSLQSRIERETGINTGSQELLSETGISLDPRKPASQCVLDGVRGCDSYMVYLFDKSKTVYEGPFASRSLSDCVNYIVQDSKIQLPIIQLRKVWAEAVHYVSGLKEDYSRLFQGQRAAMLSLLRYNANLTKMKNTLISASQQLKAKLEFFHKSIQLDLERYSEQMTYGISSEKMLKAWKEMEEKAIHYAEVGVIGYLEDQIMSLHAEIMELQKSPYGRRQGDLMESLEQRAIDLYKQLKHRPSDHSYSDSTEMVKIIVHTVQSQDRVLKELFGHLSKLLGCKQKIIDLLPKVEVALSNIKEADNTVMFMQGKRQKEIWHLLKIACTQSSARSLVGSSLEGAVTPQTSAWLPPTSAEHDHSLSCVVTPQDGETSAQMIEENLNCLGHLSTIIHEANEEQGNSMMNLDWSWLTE

[2] = target: Proto-oncogene tyrosine-protein kinase Src (Homo sapiens, UniProt P12931); experiment: Inhibition of SRC
Chain of Proto-oncogene tyrosine-protein kinase Src (P12931 2-536 limits assumed): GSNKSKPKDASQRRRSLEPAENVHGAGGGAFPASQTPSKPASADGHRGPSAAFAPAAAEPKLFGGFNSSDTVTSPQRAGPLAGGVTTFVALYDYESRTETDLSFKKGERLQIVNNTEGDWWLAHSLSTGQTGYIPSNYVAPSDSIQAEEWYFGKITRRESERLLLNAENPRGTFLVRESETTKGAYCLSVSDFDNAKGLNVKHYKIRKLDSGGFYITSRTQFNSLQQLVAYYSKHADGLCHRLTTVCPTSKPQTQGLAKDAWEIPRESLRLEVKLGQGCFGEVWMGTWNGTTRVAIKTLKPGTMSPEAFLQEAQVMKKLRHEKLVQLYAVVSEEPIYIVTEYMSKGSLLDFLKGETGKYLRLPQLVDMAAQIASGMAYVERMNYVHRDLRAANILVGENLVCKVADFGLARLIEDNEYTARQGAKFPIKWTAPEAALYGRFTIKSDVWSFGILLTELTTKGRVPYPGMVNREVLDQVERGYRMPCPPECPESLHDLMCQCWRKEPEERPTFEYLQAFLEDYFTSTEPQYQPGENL

Cytochrome P450 2D6 = Cytochrome P450 2D6 (Homo sapiens, UniProt P10635); experiment: Inhibition of CYP2D6; format: ADME
Chain of Cytochrome P450 2D6 (P10635 whole entry): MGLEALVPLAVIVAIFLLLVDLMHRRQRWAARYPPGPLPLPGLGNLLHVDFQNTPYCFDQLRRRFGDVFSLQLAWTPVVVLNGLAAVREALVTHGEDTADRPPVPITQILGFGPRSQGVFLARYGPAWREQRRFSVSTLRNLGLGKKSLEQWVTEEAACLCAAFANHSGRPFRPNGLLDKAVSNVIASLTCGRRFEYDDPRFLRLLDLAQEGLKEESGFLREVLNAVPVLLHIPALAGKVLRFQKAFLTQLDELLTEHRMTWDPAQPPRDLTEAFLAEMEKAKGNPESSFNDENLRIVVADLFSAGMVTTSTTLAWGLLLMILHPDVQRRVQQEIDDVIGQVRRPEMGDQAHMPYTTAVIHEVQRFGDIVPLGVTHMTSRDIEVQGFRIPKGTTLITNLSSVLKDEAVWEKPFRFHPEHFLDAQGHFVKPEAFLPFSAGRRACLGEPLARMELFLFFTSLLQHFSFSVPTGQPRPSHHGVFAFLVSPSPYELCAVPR

[3] = target: Ribosomal protein S6 kinase alpha-1 (Homo sapiens, UniProt Q15418); experiment: Inhibition of RSK1
Chain of Ribosomal protein S6 kinase alpha-1 (Q15418 whole entry): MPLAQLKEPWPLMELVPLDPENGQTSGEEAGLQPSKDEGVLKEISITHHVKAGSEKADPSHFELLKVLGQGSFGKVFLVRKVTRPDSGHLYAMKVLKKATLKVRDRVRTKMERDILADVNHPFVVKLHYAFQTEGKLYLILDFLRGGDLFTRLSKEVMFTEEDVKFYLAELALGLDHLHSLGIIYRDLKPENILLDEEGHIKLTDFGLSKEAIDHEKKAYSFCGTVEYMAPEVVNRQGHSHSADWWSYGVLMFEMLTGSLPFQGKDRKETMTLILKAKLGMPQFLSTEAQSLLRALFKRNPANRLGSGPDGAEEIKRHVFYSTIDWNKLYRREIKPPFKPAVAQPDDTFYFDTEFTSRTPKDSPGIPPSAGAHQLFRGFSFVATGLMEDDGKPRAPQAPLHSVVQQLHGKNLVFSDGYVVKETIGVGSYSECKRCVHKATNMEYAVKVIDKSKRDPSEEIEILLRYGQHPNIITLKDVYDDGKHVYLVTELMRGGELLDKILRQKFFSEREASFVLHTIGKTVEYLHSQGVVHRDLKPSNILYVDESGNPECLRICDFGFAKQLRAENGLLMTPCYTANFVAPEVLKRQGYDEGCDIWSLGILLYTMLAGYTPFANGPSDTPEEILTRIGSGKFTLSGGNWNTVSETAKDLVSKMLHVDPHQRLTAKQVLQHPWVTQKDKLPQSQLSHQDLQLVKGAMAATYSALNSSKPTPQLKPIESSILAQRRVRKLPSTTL

THP-1 = experiment: Inhibition of LPS-stimulated TNFalpha production in human THP1 cells
Cytochrome P450 3A4 = Cytochrome P450 3A4 (Homo sapiens, UniProt P08684); experiment: Inhibition of CYP3A4; format: ADME
Chain of Cytochrome P450 3A4 (P08684 whole entry): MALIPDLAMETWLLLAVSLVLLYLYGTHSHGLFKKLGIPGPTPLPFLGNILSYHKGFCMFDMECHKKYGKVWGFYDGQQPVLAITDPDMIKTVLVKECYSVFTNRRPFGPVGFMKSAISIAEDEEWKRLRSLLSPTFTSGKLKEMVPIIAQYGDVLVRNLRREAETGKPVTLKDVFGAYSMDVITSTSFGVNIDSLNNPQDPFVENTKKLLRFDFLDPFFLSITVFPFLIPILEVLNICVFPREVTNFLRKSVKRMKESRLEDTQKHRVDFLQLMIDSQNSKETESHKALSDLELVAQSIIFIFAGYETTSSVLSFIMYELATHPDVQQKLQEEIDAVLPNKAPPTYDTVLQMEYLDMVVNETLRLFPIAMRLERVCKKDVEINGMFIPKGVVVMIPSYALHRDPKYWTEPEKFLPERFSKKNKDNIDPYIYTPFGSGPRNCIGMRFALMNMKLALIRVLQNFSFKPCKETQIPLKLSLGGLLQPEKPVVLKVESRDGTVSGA

[4] = target: Mitogen-activated protein kinase 14 (Homo sapiens, UniProt Q16539); experiment: Inhibition of p38alpha
Chain of Mitogen-activated protein kinase 14 (Q16539 whole entry): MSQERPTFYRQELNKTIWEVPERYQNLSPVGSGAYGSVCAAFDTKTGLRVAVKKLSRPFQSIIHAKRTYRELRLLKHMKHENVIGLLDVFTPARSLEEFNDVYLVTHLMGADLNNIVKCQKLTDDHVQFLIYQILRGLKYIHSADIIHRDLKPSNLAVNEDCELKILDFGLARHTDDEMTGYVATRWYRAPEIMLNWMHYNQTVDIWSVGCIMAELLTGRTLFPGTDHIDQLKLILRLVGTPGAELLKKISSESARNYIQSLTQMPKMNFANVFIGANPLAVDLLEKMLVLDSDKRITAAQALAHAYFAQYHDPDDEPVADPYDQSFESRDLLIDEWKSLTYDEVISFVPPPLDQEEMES

[5] = target: Platelet-derived growth factor receptor alpha (Homo sapiens, UniProt P16234); experiment: Inhibition of PDGFRalpha
Cytochrome P450 2C9 = Cytochrome P450 2C9 (Homo sapiens, UniProt P11712); experiment: Inhibition of CYP2C9; format: ADME
Chain of Cytochrome P450 2C9 (P11712 whole entry): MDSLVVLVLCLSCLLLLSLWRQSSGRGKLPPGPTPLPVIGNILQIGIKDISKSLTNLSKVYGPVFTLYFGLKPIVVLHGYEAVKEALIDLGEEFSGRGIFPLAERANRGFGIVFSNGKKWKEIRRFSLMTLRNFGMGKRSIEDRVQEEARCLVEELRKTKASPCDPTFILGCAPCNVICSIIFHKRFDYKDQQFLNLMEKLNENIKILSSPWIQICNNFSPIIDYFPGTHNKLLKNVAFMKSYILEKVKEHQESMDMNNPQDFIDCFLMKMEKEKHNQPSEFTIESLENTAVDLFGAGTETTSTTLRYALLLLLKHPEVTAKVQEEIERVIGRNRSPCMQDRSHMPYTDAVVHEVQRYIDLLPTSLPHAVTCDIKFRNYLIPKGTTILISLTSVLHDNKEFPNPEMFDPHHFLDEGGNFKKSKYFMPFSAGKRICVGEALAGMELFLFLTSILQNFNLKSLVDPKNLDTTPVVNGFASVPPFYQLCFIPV

[6] = target: Tyrosine-protein kinase Fyn (Homo sapiens, UniProt P06241); experiment: Inhibition of FYN
[7] = target: Protein kinase C alpha type (Homo sapiens, UniProt P17252); experiment: Inhibition of PKCalpha
[8] = target: Mitogen-activated protein kinase 1 (Homo sapiens, UniProt P28482); experiment: Inhibition of ERK2
Aurora kinase B = Aurora kinase B (Homo sapiens, UniProt Q96GD4); experiment: Inhibition of Aurora B
Chain of Aurora kinase B (Q96GD4 whole entry, canonical isoform): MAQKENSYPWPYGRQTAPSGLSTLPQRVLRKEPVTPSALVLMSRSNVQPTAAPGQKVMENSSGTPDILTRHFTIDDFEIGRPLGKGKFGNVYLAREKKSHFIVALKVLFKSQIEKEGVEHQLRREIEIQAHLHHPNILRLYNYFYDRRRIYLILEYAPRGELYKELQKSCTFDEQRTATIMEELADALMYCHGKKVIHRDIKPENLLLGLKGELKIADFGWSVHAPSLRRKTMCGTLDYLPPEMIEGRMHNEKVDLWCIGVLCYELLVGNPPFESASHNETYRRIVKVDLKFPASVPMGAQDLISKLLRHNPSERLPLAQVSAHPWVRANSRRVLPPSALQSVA

[9] = target: Casein kinase I isoform gamma-1 (Homo sapiens, UniProt Q9HCP0); experiment: Inhibition of CK1-gamma1
Chain of Casein kinase I isoform gamma-1 (Q9HCP0 whole entry, canonical isoform): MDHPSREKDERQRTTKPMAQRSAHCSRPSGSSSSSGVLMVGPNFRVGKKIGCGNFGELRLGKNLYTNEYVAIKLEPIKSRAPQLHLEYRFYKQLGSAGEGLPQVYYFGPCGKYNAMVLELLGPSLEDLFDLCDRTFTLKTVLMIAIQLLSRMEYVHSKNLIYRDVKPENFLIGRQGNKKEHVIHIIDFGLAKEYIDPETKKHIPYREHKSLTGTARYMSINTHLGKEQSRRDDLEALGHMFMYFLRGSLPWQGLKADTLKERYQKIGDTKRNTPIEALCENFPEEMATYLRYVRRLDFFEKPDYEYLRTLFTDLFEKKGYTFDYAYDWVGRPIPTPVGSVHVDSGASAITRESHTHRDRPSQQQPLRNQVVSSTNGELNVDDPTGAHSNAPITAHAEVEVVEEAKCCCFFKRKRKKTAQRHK

[10] = target: MAP kinase-activated protein kinase 2 (Homo sapiens, UniProt P49137)
Chain of MAP kinase-activated protein kinase 2 (P49137 whole entry): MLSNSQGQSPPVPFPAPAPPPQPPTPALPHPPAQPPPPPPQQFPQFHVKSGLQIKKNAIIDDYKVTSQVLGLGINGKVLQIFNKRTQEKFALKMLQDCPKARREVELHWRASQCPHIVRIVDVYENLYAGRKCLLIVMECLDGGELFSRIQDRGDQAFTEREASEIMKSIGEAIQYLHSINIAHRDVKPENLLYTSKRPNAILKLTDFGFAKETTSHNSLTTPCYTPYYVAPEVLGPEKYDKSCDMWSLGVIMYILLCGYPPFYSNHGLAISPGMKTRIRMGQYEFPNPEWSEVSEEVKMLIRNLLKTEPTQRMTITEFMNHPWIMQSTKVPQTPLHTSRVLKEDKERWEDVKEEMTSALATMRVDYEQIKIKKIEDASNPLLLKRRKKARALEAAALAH
Description: Inhibition of human recombinant MK2

[11] = target: Rho-associated protein kinase 1 (Homo sapiens, UniProt Q13464); experiment: Inhibition of ROCK1
CYP3A4 = CYP3A4 (Homo sapiens, UniProt P08684); experiment: Inhibition of CYP3A4 at 3 uM; format: ADME
CYP2D6 = CYP2D6 (Homo sapiens, UniProt P10635); experiment: Inhibition of CYP2D6 at 3 uM; format: ADME
CYP2C9 = CYP2C9 (Homo sapiens, UniProt P11712); experiment: Inhibition of CYP2C9 at 3 uM; format: ADME

| SMILES | pIC50 [1] | pIC50 [2] | pIC50 [3] | pIC50 (THP-1) | pIC50 [4] | pIC50 [5] | pIC50 [6] | pIC50 [7] | pIC50 [8] | pIC50 (Aurora kinase B) | pIC50 [9] | pIC50 [10] | also measured |
| --- | --- | --- | --- | --- | --- | --- | --- | --- | --- | --- | --- | --- | --- |
| C[C@@H](Nc1c(Nc2ccncc2)c(=O)c1=O)c1ccccc1 | < 4.30 | < 4.30 | 6.09 | 4.97 | < 4.30 | 4.39 | < 4.30 | < 4.30 |  |  |  |  | pIC50 (Cytochrome P450 2D6): 5.48; pIC50 (Cytochrome P450 3A4): 5.89; pIC50 (Cytochrome P450 2C9): 6.22 |
| C[C@@H](Nc1c(N(C)c2ccncc2)c(=O)c1=O)c1ccccc1 |  |  |  |  |  |  |  |  |  |  |  | < 4.00 |  |
| C[C@@H](Nc1c(Nc2ccnc(-c3ccccc3F)c2)c(=O)c1=O)c1ccccc1 | < 4.30 | < 4.30 | < 4.30 | 5.66 | 4.66 | < 4.30 | < 4.30 | < 4.30 | < 4.30 | < 4.30 | < 4.30 | 5.24 | pIC50 [11]: < 4.30 |
| C[C@@H](Nc1c(Nc2ccnc(Nc3ccncn3)c2)c(=O)c1=O)c1ccccc1 |  |  |  | 5.96 |  |  |  |  |  |  |  |  |  |
| C[C@@H](Nc1c(Nc2ccnc(-c3ccsc3)c2)c(=O)c1=O)c1ccccc1 | < 4.30 | < 4.30 | < 4.30 |  | < 4.30 | 4.44 | 4.82 | < 4.30 | < 4.30 | 4.97 | 4.94 | 5.27 | pIC50 [11]: < 4.30 |
| NC(=O)C(Nc1c(Nc2ccncc2)c(=O)c1=O)c1cccc(O)c1 (configuration not stated) | < 4.30 | < 4.30 | 6.54 | 4.77 | < 4.30 | 4.95 | < 4.30 | 4.47 | 5.38 | 5.85 | 6.80 | 6.41 | pIC50 [11]: 7.22; pIC50 (Cytochrome P450 2D6): < 5.00; pIC50 (Cytochrome P450 3A4): < 5.00; pIC50 (Cytochrome P450 2C9): 5.19 |
| C[C@@H](Nc1c(Nc2ccnc(-c3ccco3)c2)c(=O)c1=O)c1ccccc1 | < 4.30 | < 4.30 | < 4.30 | 5.68 | < 4.30 | 4.57 | < 4.30 | < 4.30 | 4.46 | 5.06 | 5.31 | 5.28 | pIC50 [11]: < 4.30 |
| C[C@@H](Nc1c(Nc2ccn[nH]2)c(=O)c1=O)c1ccccc1 |  |  |  |  |  |  |  |  |  |  |  | < 4.00 | pIC50 (Cytochrome P450 3A4): 4.40; pIC50 (Cytochrome P450 2C9): 4.92 |

Continued, in another order:

| pIC50 [1] | pIC50 [2] | pIC50 [3] | pIC50 (THP-1) | pIC50 [4] | pIC50 [5] | pIC50 [6] | pIC50 [7] | pIC50 [8] | pIC50 (Aurora kinase B) | pIC50 [9] | pIC50 [10] | SMILES | also measured |
| --- | --- | --- | --- | --- | --- | --- | --- | --- | --- | --- | --- | --- | --- |
| < 4.30 | < 4.30 | 6.11 | < 4.40 | < 4.30 | 4.36 | < 4.30 |  | 5.20 | 5.22 | 6.28 | 5.35 | NC(=O)C(Nc1c(Nc2ccncc2)c(=O)c1=O)c1ccccc1 (configuration not stated) | pIC50 (Cytochrome P450 2D6): < 5.00; pIC50 (Cytochrome P450 3A4): 5.07; pIC50 (Cytochrome P450 2C9): 5.29 |
|  |  |  | 4.47 |  |  |  |  |  |  |  |  | CC(Nc1c(Nc2ccncc2)c(=O)c1=O)c1cccc(O)c1 (configuration not stated) |  |
|  |  |  |  |  |  |  |  |  |  |  | < 4.00 | C[C@H](c1ccccc1)N(C)c1c(Nc2ccncc2)c(=O)c1=O |  |
|  |  |  |  |  |  |  |  |  |  |  | < 4.00 | C[C@@H](Nc1c(Nc2ccnc(Cl)c2)c(=O)c1=O)c1ccccc1 |  |
|  |  |  |  |  |  |  |  |  |  |  | < 4.00 | C[C@@H](Nc1c(Nc2cccnc2)c(=O)c1=O)c1ccccc1 | inhibition at 3 µM (CYP3A4): 16%; inhibition at 3 µM (CYP2D6): 26%; inhibition at 3 µM (CYP2C9): 1% |
|  |  |  |  |  |  |  |  |  |  |  | < 4.00 | C[C@@H](Nc1c(Nc2ccncn2)c(=O)c1=O)c1ccccc1 |  |
